Experimental data from article PMC7156458, “Synthetic biology based construction of biological activity-related library of fungal decalin-containing diterpenoid pyrones” (Nature Communications, 2020).

Molecular target: Aβ42 (Homo sapiens, UniProt P05067)
Assay: Th-T (thioflavin-T) assay of Aβ42 aggregation
Assay type: biochemical

Aβ42, sequence (P05067 672-713): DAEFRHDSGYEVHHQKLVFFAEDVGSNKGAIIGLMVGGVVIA

C=C1CC[C@@H]2[C@](C)(CC[C@H]3O[C@H](C=C(C)C)C[C@@]23C)[C@@H]1Cc1c(OC)oc(CO)c(C(=O)OC)c1=O [Compound 21]
Fig. 7a Th-T reading, mean of three wells (column suffix _20, reading M101): 0.9158 | Fig. 7a Th-T reading, mean of three wells (column suffix _20, reading M102): 0.9188 | Fig. 7a Th-T reading, mean of three wells (column suffix _20, reading M103): 0.9187 | Fig. 7a Th-T reading, mean of three wells (column suffix _20, reading M104): 0.9595 | Fig. 7a Th-T reading, mean of three wells (column suffix _20, reading M105): 0.9387 | Fig. 7a Th-T reading, mean of three wells (column suffix _20, reading M106): 0.9399 | Th-T fluorescence, mean of three wells (Fig. 7a) (column suffix _50, measurement M19): 0.2078 | Th-T fluorescence, mean of three wells (Fig. 7a) (column suffix _50, measurement M20): 0.2087 | Th-T fluorescence, mean of three wells (Fig. 7a) (column suffix _50, measurement M21): 0.2125 | Th-T fluorescence, mean of three wells (Fig. 7a) (column suffix _50, measurement M22): 0.212 | Th-T fluorescence, mean of three wells (Fig. 7a) (column suffix _50, measurement M23): 0.2107 | Th-T fluorescence, mean of three wells (Fig. 7a) (column suffix _50, measurement M24): 0.2101 | Th-T fluorescence, mean of three wells (Fig. 7a) (column suffix _50, measurement M25): 0.2098 | Th-T fluorescence, mean of three wells (Fig. 7a) (column suffix _50, measurement M26): 0.2113 | Th-T fluorescence, mean of three wells (Fig. 7a) (column suffix _50, measurement M27): 0.2118 | Th-T fluorescence, mean of three wells (Fig. 7a) (column suffix _50, measurement M28): 0.2093 | Th-T fluorescence, mean of three wells (Fig. 7a) (column suffix _50, measurement M29): 0.2091 | Th-T assay signal, mean of three wells (Fig. 7a) (column suffix _50, reading M1): 0.2216 | Th-T assay signal, mean of three wells (Fig. 7a) (column suffix _50, reading M2): 0.219 | Th-T assay signal, mean of three wells (Fig. 7a) (column suffix _50, reading M3): 0.2148 | Th-T assay signal, mean of three wells (Fig. 7a) (column suffix _50, reading M4): 0.2093 | Th-T assay signal, mean of three wells (Fig. 7a) (column suffix _50, reading M5): 0.2111 | Th-T assay signal, mean of three wells (Fig. 7a) (column suffix _50, reading M6): 0.209 | Th-T assay signal, mean of three wells (Fig. 7a) (column suffix _50, reading M7): 0.2096 | Th-T assay signal, mean of three wells (Fig. 7a) (column suffix _50, reading M8): 0.2075 | Th-T assay signal, mean of three wells (Fig. 7a) (column suffix _50, reading M9): 0.2085 | Th-T assay signal, mean of three wells (Fig. 7a) (column suffix _50, reading M10): 0.2097 | Th-T assay signal, mean of three wells (Fig. 7a) (column suffix _50, reading M11): 0.2085 | Th-T assay signal, mean of three wells (Fig. 7a) (column suffix _50, reading M12): 0.2082 | Th-T assay signal, mean of three wells (Fig. 7a) (column suffix _50, reading M13): 0.2085 | Th-T assay signal, mean of three wells (Fig. 7a) (column suffix _50, reading M14): 0.2061 | Th-T assay signal, mean of three wells (Fig. 7a) (column suffix _50, reading M15): 0.2099 | Th-T assay signal, mean of three wells (Fig. 7a) (column suffix _50, reading M16): 0.2095 | Th-T assay signal, mean of three wells (Fig. 7a) (column suffix _50, reading M17): 0.2108 | Th-T assay signal, mean of three wells (Fig. 7a) (column suffix _50, reading M18): 0.2093 | Fig. 7a Th-T reading, mean of three wells (column suffix _50, reading M85): 0.38 | Fig. 7a Th-T reading, mean of three wells (column suffix _50, reading M86): 0.3921 | Fig. 7a Th-T reading, mean of three wells (column suffix _50, reading M87): 0.401 | Fig. 7a Th-T reading, mean of three wells (column suffix _50, reading M88): 0.4081 | Fig. 7a Th-T reading, mean of three wells (column suffix _50, reading M89): 0.4167 | Fig. 7a Th-T reading, mean of three wells (column suffix _50, reading M90): 0.4233 | Fig. 7a Th-T reading, mean of three wells (column suffix _50, reading M91): 0.4313 | Fig. 7a Th-T reading, mean of three wells (column suffix _50, reading M92): 0.4386 | Fig. 7a Th-T reading, mean of three wells (column suffix _50, reading M93): 0.4449 | Fig. 7a Th-T reading, mean of three wells (column suffix _50, reading M94): 0.4505 | Fig. 7a Th-T reading, mean of three wells (column suffix _50, reading M95): 0.4544 | Fig. 7a Th-T reading, mean of three wells (column suffix _50, reading M96): 0.4583 | Fig. 7a Th-T reading, mean of three wells (column suffix _50, reading M97): 0.4639 | Fig. 7a Th-T reading, mean of three wells (column suffix _50, reading M98): 0.4638 | Fig. 7a Th-T reading, mean of three wells (column suffix _50, reading M99): 0.4696 | Fig. 7a Th-T reading, mean of three wells (column suffix _50, reading M100): 0.4671 | Fig. 7a Th-T reading, mean of three wells (column suffix _50, reading M101): 0.4718 | Fig. 7a Th-T reading, mean of three wells (column suffix _50, reading M102): 0.4727 | Fig. 7a Th-T reading, mean of three wells (column suffix _50, reading M103): 0.4762 | Fig. 7a Th-T reading, mean of three wells (column suffix _50, reading M104): 0.4757 | Fig. 7a Th-T reading, mean of three wells (column suffix _50, reading M105): 0.4769 | Fig. 7a Th-T reading, mean of three wells (column suffix _50, reading M106): 0.4817 | Th-T fluorescence, mean of three wells (compound at 10, reading M41 of time course): 0.2566 | Th-T fluorescence, mean of three wells (compound at 10, reading M42 of time course): 0.2579 | Th-T fluorescence, mean of three wells (compound at 10, reading M43 of time course): 0.2567 | Th-T fluorescence, mean of three wells (compound at 10, reading M44 of time course): 0.2585 | Th-T fluorescence, mean of three wells (compound at 10, reading M45 of time course): 0.2609 | Th-T fluorescence, mean of three wells (compound at 10, reading M46 of time course): 0.2644 | Th-T fluorescence, mean of three wells (compound at 10, reading M47 of time course): 0.2626 | Th-T fluorescence, mean of three wells (compound at 10, reading M48 of time course): 0.2676 | Th-T fluorescence, mean of three wells (compound at 10, reading M49 of time course): 0.2662 | Th-T fluorescence, mean of three wells (compound at 10, reading M50 of time course): 0.2709 | Th-T fluorescence, mean of three wells (compound at 10, reading M51 of time course): 0.2759 | Th-T fluorescence, mean of three wells (compound at 10, reading M52 of time course): 0.2782 | Th-T fluorescence, mean of three wells (compound at 10, reading M53 of time course): 0.2826 | Th-T fluorescence, mean of three wells (compound at 10, reading M54 of time course): 0.2883 | Th-T fluorescence, mean of three wells (compound at 10, reading M55 of time course): 0.2969 | Th-T fluorescence, mean of three wells (compound at 10, reading M56 of time course): 0.3032 | Th-T fluorescence, mean of three wells (compound at 10, reading M57 of time course): 0.3204 | Th-T fluorescence, mean of three wells (compound at 10, reading M58 of time course): 0.3339 | Th-T fluorescence, mean of three wells (compound at 10, reading M59 of time course): 0.3536 | Th-T fluorescence, mean of three wells (compound at 10, reading M60 of time course): 0.3831 | Th-T fluorescence, mean of three wells (compound at 10, reading M61 of time course): 0.414 | Th-T fluorescence, mean of three wells (compound at 10, reading M62 of time course): 0.4619 | Th-T fluorescence, mean of three wells (compound at 20, reading M41 of time course): 0.2134 | Th-T fluorescence, mean of three wells (compound at 20, reading M42 of time course): 0.2125 | Th-T fluorescence, mean of three wells (compound at 20, reading M43 of time course): 0.2115 | Th-T fluorescence, mean of three wells (compound at 20, reading M44 of time course): 0.212 | Th-T fluorescence, mean of three wells (compound at 20, reading M45 of time course): 0.2129 | Th-T fluorescence, mean of three wells (compound at 20, reading M46 of time course): 0.214 | Th-T fluorescence, mean of three wells (compound at 20, reading M47 of time course): 0.2155 | Th-T fluorescence, mean of three wells (compound at 20, reading M48 of time course): 0.2155 | Th-T fluorescence, mean of three wells (compound at 20, reading M49 of time course): 0.2153 | Th-T fluorescence, mean of three wells (compound at 20, reading M50 of time course): 0.2164 | Th-T fluorescence, mean of three wells (compound at 20, reading M51 of time course): 0.2208 | Th-T fluorescence, mean of three wells (compound at 20, reading M52 of time course): 0.2184 | Th-T fluorescence, mean of three wells (compound at 20, reading M53 of time course): 0.2214 | Th-T fluorescence, mean of three wells (compound at 20, reading M54 of time course): 0.2246 | Th-T fluorescence, mean of three wells (compound at 20, reading M55 of time course): 0.224 | Th-T fluorescence, mean of three wells (compound at 20, reading M56 of time course): 0.2282 | Th-T fluorescence, mean of three wells (compound at 20, reading M57 of time course): 0.2293 | Th-T fluorescence, mean of three wells (compound at 20, reading M58 of time course): 0.2297 | Th-T fluorescence, mean of three wells (compound at 20, reading M59 of time course): 0.2309 | Th-T fluorescence, mean of three wells (compound at 20, reading M60 of time course): 0.2314 | Th-T fluorescence, mean of three wells (compound at 20, reading M61 of time course): 0.2372 | Th-T fluorescence, mean of three wells (compound at 20, reading M62 of time course): 0.2381 | Th-T fluorescence, mean of three wells (compound at 50, reading M41 of time course): 0.2143 | Th-T fluorescence, mean of three wells (compound at 50, reading M42 of time course): 0.2133 | Th-T fluorescence, mean of three wells (compound at 50, reading M43 of time course): 0.2141 | Th-T fluorescence, mean of three wells (compound at 50, reading M44 of time course): 0.2135 | Th-T fluorescence, mean of three wells (compound at 50, reading M45 of time course): 0.2151 | Th-T fluorescence, mean of three wells (compound at 50, reading M46 of time course): 0.2145 | Th-T fluorescence, mean of three wells (compound at 50, reading M47 of time course): 0.2129 | Th-T fluorescence, mean of three wells (compound at 50, reading M48 of time course): 0.2151 | Th-T fluorescence, mean of three wells (compound at 50, reading M49 of time course): 0.2127 | Th-T fluorescence, mean of three wells (compound at 50, reading M50 of time course): 0.2161 | Th-T fluorescence, mean of three wells (compound at 50, reading M51 of time course): 0.2181 | Th-T fluorescence, mean of three wells (compound at 50, reading M52 of time course): 0.2182 | Th-T fluorescence, mean of three wells (compound at 50, reading M53 of time course): 0.2185
